Source: ChEMBL document CHEMBL1137107, “Design, synthesis, and evaluation of hexahydrobenz[f]isoquinolines as a novel class of dopamine 3 receptor ligands” (Bioorg Med Chem Lett, 2004)

Tests used:
D(3) dopamine receptor = D(3) dopamine receptor (Rattus norvegicus, UniProt P19020)
Description: Binding affinity towards dopamine D3 receptor in ventral striatal membranes of sprague-dawley rat brain by using [3H]-PD 128907 as radioligand

Rattus norvegicus [1] = organism: Rattus norvegicus; assay: Ratio of binding affinity for D2-like receptor to that of dopamine D3 receptor
Rattus norvegicus [2] = organism: Rattus norvegicus; assay: Ratio of binding affinity for D1-like receptor to that of dopamine D3 receptor
[3] = Binding affinity towards D1-like dopamine receptor in caudate-putamen membranes of sprague-dawley rat brain by using [3H]-SCH- 23390 as radioligand; assay type: cell membranes, Membrane
[4] = Binding affinity towards D2-like dopamine receptor in caudate-putamen membranes of sprague-dawley rat brain by using [3H]spiperone as radioligand; assay type: cell membranes, Membrane

D(3) dopamine receptor, sequence (P19020 whole entry): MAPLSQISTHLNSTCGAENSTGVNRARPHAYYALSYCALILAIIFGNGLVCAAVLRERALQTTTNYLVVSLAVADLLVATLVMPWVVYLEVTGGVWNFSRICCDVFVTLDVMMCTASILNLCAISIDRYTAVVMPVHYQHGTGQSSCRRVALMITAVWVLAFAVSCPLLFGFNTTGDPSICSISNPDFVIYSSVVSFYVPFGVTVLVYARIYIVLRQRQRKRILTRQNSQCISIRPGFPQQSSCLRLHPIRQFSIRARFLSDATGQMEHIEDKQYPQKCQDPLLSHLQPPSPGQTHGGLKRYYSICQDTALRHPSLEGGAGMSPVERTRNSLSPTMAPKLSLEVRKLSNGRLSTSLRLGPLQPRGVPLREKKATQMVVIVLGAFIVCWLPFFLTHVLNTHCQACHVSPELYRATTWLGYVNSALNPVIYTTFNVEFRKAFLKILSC

Q: For `CCN1CCC2=C(CCc3ccccc32)C1`, which Ki (D(3) dopamine receptor) is on record?
A: The Ki was 183 nM.

Q: For `c1ccc(CCCN2CCC3=C(CCc4ccccc43)C2)cc1`, which Ki (D(3) dopamine receptor) is on record?
A: Its Ki is 103 nM.

Q: Which results are given for `c1ccc(CCCCN2CCC3=C(CCc4ccccc43)C2)cc1`?
A: Ki (D(3) dopamine receptor): 74 nM; Selectivity (Rattus norvegicus [1]): 1; Selectivity (Rattus norvegicus [2]): 9; Ki [3]: 696 nM; Ki [4]: 59 nM

Q: Which Ki (D(3) dopamine receptor) does the source give for `CCCCN1CCC2=C(CCc3ccccc32)C1` here?
A: Its Ki is 25 nM.

Q: What about the Selectivity (Rattus norvegicus [1]) of the same compound?
A: Its Selectivity is 5.

Q: And the Selectivity (Rattus norvegicus [2])?
A: The Selectivity was 62.

Q: And the Ki [3]?
A: The Ki was 1570 nM.

Q: What about the Ki [4] of the same compound?
A: The Ki was 122 nM.

Q: Which Ki (D(3) dopamine receptor) does the source give for `CCCN1CCC2=C(CCc3ccccc32)C1` here?
A: The Ki was 63 nM.

Q: And the Selectivity (Rattus norvegicus [1])?
A: The Selectivity was 1.

Q: And the Selectivity (Rattus norvegicus [2])?
A: Its Selectivity is 18.

Q: And the Ki [3]?
A: The Ki was 1120 nM.

Q: And the Ki [4]?
A: Its Ki is 84 nM.

Q: For `COc1ccccc1N1CCN(CCCCNC(=O)c2ccc3ccccc3c2)CC1` [BP-897], which Ki [3] is on record?
A: Its Ki is 636 nM.

Q: And the Ki [4]?
A: Its Ki is 162 nM.

Q: For `c1ccc(CCN2CCC3=C(CCc4ccccc43)C2)cc1`, which Ki (D(3) dopamine receptor) is on record?
A: Its Ki is 84 nM.

Q: And the Selectivity (Rattus norvegicus [1])?
A: Its Selectivity is 39.

Q: And the Selectivity (Rattus norvegicus [2])?
A: The Selectivity was 10.

Q: What about the Ki [3] of the same compound?
A: Its Ki is 819 nM.

Q: What about the Ki [4] of the same compound?
A: Its Ki is 3290 nM.

Q: Which results are given for `CCCCCN1CCC2=C(CCc3ccccc32)C1`?
A: Ki (D(3) dopamine receptor): 38 nM; Selectivity (Rattus norvegicus [1]): 1; Selectivity (Rattus norvegicus [2]): 28; Ki [3]: 1060 nM; Ki [4]: 46 nM

Q: Which Ki (D(3) dopamine receptor) does the source give for `O=C(NCCCCN1CCC2=C(CCc3ccccc32)C1)c1ccc2ccccc2c1` here?
A: Its Ki is 6.1 nM.

Q: What about the Selectivity (Rattus norvegicus [1]) of the same compound?
A: The Selectivity was 133.

Q: And the Selectivity (Rattus norvegicus [2])?
A: Its Selectivity is 163.

Q: And the Ki [3]?
A: Its Ki is 993 nM.

Q: What about the Ki [4] of the same compound?
A: Its Ki is 811 nM.
